# In ChEMBL document CHEMBL3994622, “Design and synthesis of new RAF kinase-inhibiting antiproliferative quinoline derivatives. Part 2: Diarylurea derivatives” (Eur J Med Chem, 2017):
# Tests used:
# Assay type in all cases: functional
# [1] = tested on: 786-0; experiment: Growth inhibition of human 786-0 cells incubated for 48 hrs by sulforhodamine B assay; conditions: 786-0, 48 h
# [2] = tested on: UO-31; experiment: Growth inhibition of human UO31 cells incubated for 48 hrs by sulforhodamine B assay; conditions: UO-31, 48 h
# [3] = tested on: LOX IMVI; experiment: Growth inhibition of human LOXIMVI cells incubated for 48 hrs by sulforhodamine B assay
# [4] = tested on: A498; experiment: Growth inhibition of human A498 cells incubated for 48 hrs by sulforhodamine B assay; conditions: A498, 48 h
# [5] = tested on: T47D; experiment: Growth inhibition of human T47D cells incubated for 48 hrs by sulforhodamine B assay
# [6] = tested on: SK-MEL-2; experiment: Growth inhibition of human SK-MEL-2 cells incubated for 48 hrs by sulforhodamine B assay; conditions: SK-MEL-2, 48 h
# [7] = tested on: BT-549; experiment: Growth inhibition of human BT549 cells incubated for 48 hrs by sulforhodamine B assay; conditions: BT-549, 48 h
# [8] = tested on: SF-539; experiment: Growth inhibition of human SF539 cells incubated for 48 hrs by sulforhodamine B assay; conditions: SF-539, 48 h
# [9] = tested on: MDA-MB-435; experiment: Growth inhibition of human MDA-MB-435 cells incubated for 48 hrs by sulforhodamine B assay; conditions: MDA-MB-435, 48 h
# [10] = tested on: OVCAR-8; experiment: Growth inhibition of human OVCAR8 cells incubated for 48 hrs by sulforhodamine B assay; conditions: OVCAR-8, 48 h
# [11] = tested on: SNB-75; experiment: Growth inhibition of human SNB75 cells incubated for 48 hrs by sulforhodamine B assay; conditions: SNB-75, 48 h
# [12] = tested on: SNB-19; experiment: Growth inhibition of human SNB19 cells incubated for 48 hrs by sulforhodamine B assay; conditions: SNB-19, 48 h
# [13] = tested on: SK-MEL-5; experiment: Growth inhibition of human SK-MEL-5 cells incubated for 48 hrs by sulforhodamine B assay; conditions: SK-MEL-5, 48 h
# [14] = tested on: Malme-3M; experiment: Growth inhibition of human MALME-3M cells incubated for 48 hrs by sulforhodamine B assay
# [15] = tested on: UACC-257; experiment: Growth inhibition of human UACC257 cells incubated for 48 hrs by sulforhodamine B assay; conditions: UACC-257, 48 h
# [16] = tested on: IGROV-1; experiment: Growth inhibition of human IGROV1 cells incubated for 48 hrs by sulforhodamine B assay; conditions: IGROV-1, 48 h
# [17] = tested on: OVCAR-3; experiment: Growth inhibition of human OVCAR3 cells incubated for 48 hrs by sulforhodamine B assay; conditions: OVCAR-3, 48 h
# [18] = tested on: CAKI-1; experiment: Growth inhibition of human Caki1 cells incubated for 48 hrs by sulforhodamine B assay; conditions: CAKI-1, 48 h
# [19] = tested on: SK-MEL-28; experiment: Growth inhibition of human SK-MEL-28 cells incubated for 48 hrs by sulforhodamine B assay; conditions: SK-MEL-28, 48 h
# [20] = tested on: A549; experiment: Growth inhibition of human A549/ATCC cells incubated for 48 hrs by sulforhodamine B assay; conditions: A549, 48 h
# [21] = tested on: DU-145; experiment: Growth inhibition of human DU145 cells incubated for 48 hrs by sulforhodamine B assay; conditions: DU-145, 48 h
# [22] = tested on: PC-3; experiment: Growth inhibition of human PC3 cells incubated for 48 hrs by sulforhodamine B assay; conditions: PC-3, 48 h
# [23] = tested on: SF-295; experiment: Growth inhibition of human SF295 cells incubated for 48 hrs by sulforhodamine B assay; conditions: SF-295, 48 h
# [24] = tested on: SN12C; experiment: Growth inhibition of human SN12C cells incubated for 48 hrs by sulforhodamine B assay
# [25] = tested on: ACHN; experiment: Growth inhibition of human ACHN cells incubated for 48 hrs by sulforhodamine B assay
# [26] = tested on: MDA-MB-231; experiment: Growth inhibition of human MDA-MB-231 cells incubated for 48 hrs by sulforhodamine B assay; conditions: MDA-MB-231, 48 h
# [27] = tested on: NCI-H23; experiment: Growth inhibition of human NCI-H23 cells incubated for 48 hrs by sulforhodamine B assay; conditions: NCI-H23, 48 h
# [28] = tested on: NCI/ADR-RES; experiment: Growth inhibition of human NCI/ADR-RES cells incubated for 48 hrs by sulforhodamine B assay
# [29] = tested on: HOP-62; experiment: Growth inhibition of human HOP62 cells incubated for 48 hrs by sulforhodamine B assay; conditions: HOP-62, 48 h
# [30] = tested on: OVCAR-4; experiment: Growth inhibition of human OVCAR4 cells incubated for 48 hrs by sulforhodamine B assay; conditions: OVCAR-4, 48 h
# [31] = tested on: HCT-15; experiment: Growth inhibition of human HCT15 cells incubated for 48 hrs by sulforhodamine B assay; conditions: HCT-15, 48 h
# [32] = tested on: K562; experiment: Growth inhibition of human K562 cells incubated for 48 hrs by sulforhodamine B assay; conditions: K562, 48 h
# [33] = read-out: LC50 (the source's name)
compound,measurement,setting,value
COc1cc2cc(Oc3ccc(NC(=O)Nc4ccc(Cl)c(Cl)c4)cc3)c(C)nc2cc1OC,GI50,[1],3.64 µM
same,TGI,[1],17.7 µM
same,CC50,[1]; [33],65.2 µM
same,GI50,[2],3.44 µM
same,TGI,[2],12.6 µM
same,CC50,[2]; [33],79.6 µM
same,GI50,[3],3.45 µM
same,TGI,[3],14.6 µM
same,CC50,[3]; [33],38.2 µM
same,GI50,[4],1.95 µM
same,TGI,[4],7.93 µM
same,CC50,[4]; [33],74.9 µM
same,GI50,[5],2.7 µM
same,TGI,[5],10.1 µM
same,CC50,[5]; [33],84.7 µM
same,GI50,[6],3 µM
same,TGI,[6],6.55 µM
same,CC50,[6]; [33],20.6 µM
same,GI50,[7],2.4 µM
same,TGI,[7],11.7 µM
same,CC50,[7]; [33],51.6 µM
same,GI50,[8],5.18 µM
same,TGI,[8],22.3 µM
same,CC50,[8]; [33],88.8 µM
same,GI50,[9],3.09 µM
same,TGI,[9],16.8 µM
same,CC50,[9]; [33],> 100 µM
same,GI50,[10],3.54 µM
same,TGI,[10],12.9 µM
same,CC50,[10]; [33],36 µM
same,GI50,[11],2.33 µM
same,TGI,[11],8.28 µM
same,CC50,[11]; [33],66.1 µM
same,GI50,[12],4.26 µM
same,TGI,[12],24 µM
same,CC50,[12]; [33],> 100 µM
same,GI50,[13],2.58 µM
same,TGI,[13],8.09 µM
same,CC50,[13]; [33],30.8 µM
same,GI50,[14],3.02 µM
same,TGI,[14],7.72 µM
same,CC50,[14]; [33],26.7 µM
same,GI50,[15],2.31 µM
same,TGI,[15],6.28 µM
same,CC50,[15]; [33],24.4 µM
same,GI50,[16],5.61 µM
same,TGI,[16],46.1 µM
same,CC50,[16]; [33],> 100 µM
same,GI50,[17],2.34 µM
same,TGI,[17],6.19 µM
same,CC50,[17]; [33],22.2 µM
same,GI50,[18],2.12 µM
same,TGI,[18],6.65 µM
same,CC50,[18]; [33],49.5 µM
same,GI50,[19],3.77 µM
same,TGI,[19],14.7 µM
same,CC50,[19]; [33],51.2 µM
same,GI50,[20],1.64 µM
same,TGI,[20],7.61 µM
same,CC50,[20]; [33],28.3 µM
same,GI50,[21],4.27 µM
same,TGI,[21],17.1 µM
same,CC50,[21]; [33],68.4 µM
same,GI50,[22],1.53 µM
same,TGI,[22],5.13 µM
same,CC50,[22]; [33],21.3 µM
same,GI50,[23],1.96 µM
same,TGI,[23],6.08 µM
same,CC50,[23]; [33],67.7 µM
same,GI50,[24],3.39 µM
same,TGI,[24],20.5 µM
same,CC50,[24]; [33],> 100 µM
same,GI50,[25],3 µM
same,TGI,[25],12.1 µM
same,CC50,[25]; [33],69.1 µM
same,GI50,[26],2.46 µM
same,TGI,[26],12 µM
same,CC50,[26]; [33],34.6 µM
same,GI50,[27],3.36 µM
same,TGI,[27],15.9 µM
same,CC50,[27]; [33],76.3 µM
same,GI50,[28],2.6 µM
same,TGI,[28],16.9 µM
same,CC50,[28]; [33],> 100 µM
same,GI50,[29],3.55 µM
same,TGI,[29],11.9 µM
same,CC50,[29]; [33],34.4 µM
same,GI50,[30],2.67 µM
same,TGI,[30],8.3 µM
same,CC50,[30]; [33],35.2 µM
same,GI50,[31],3.56 µM
same,"LC50 (lethal concentration, 50% net cell kill)",[31],> 100 µM
same,TGI,[31],> 100 µM
same,GI50,[32],3.32 µM
same,LC50 (concentration killing 50% of cells),[32],> 100 µM
same,TGI,[32],> 100 µM
